Data on 11 molecules can be found in ChEMBL document CHEMBL1201862, “PubChem BioAssay data set” (2004).

“And” between values parts separate entries of the source, which are not always exact repeats. Equal values may be shown once.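 Growth conditions: 96-well plates. Treatment: test compound, 48 hours, 5 concentrations. Analysis: linear interpolation between bracketing concentrations; unreached endpoints set to highest concentration. GI50 = concentration required for 50% inhibition of growth.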 The source made the active and inactive calls. Cut-off read from the data, not from the text of the source: active = GI50 up to about 1.1 µM and inactive = higher. Residues, ends and D or L forms follow the SMILES beside them. *: point of attachment. OBn = c1ccc(CO*)cc1 A value given as a limit tells only on which side of the number the result lay.

Test systems include BT-549; CCRF-CEM; COLO 205; HCT-116; HL-60; Hs-578T; IGROV-1; M14; MDA-MB-435; MDA-N; MOLT-4; OVCAR-5; RXF 393; SF-295; SK-MEL-28; SK-MEL-5; SNB-75; SR; UACC-62; SNB-78.
Common to all, as to test: DTP human tumour cell line panel, 48 h

Regarding `CCCCON1C[C@@H](O)C(O)[C@@H](O)C1` (stereo not given in full), the GI50 with BT-549, in the experiment with CCRF-CEM, in the experiment with COLO 205, in the experiment with HCT-116, with HL-60 and in the experiment with Hs-578T was > 100 µM (inactive) each time. The GI50 in the experiment with IGROV-1, in the experiment with M14, in the experiment on MDA-MB-435, in the experiment with MDA-N, in the experiment on MOLT-4 and in the experiment with OVCAR-5 was > 100 µM (inactive) each time. The GI50 in the experiment with RXF 393, with SF-295, in the experiment with SK-MEL-28, in the experiment with SK-MEL-5, with SNB-75 and in the experiment with SR was > 100 µM (inactive) each time. Besides, the GI50 (usually the concentration giving 50% growth inhibition) with UACC-62 was > 100 µM (inactive).
Consider `CCOC(=O)C1(C)CCCCC(=O)N1` (stereo not given), for which the GI50 in the experiment on COLO 205, with HL-60, in the experiment on IGROV-1, with M14, in the experiment with RXF 393 and in the experiment on SF-295 was > 100 µM (inactive) each time. Also, the GI50 with SK-MEL-28, in the experiment with SNB-75, with SNB-78 and with UACC-62 was > 100 µM (inactive) in each case.
Take `O=C(O)Cn1ccnc1[N+](=O)[O-]`: the GI50 in the experiment on BT-549, with CCRF-CEM, in the experiment with COLO 205, in the experiment on HCT-116, in the experiment on HL-60 and with Hs-578T was > 100 µM (inactive) in each case. Moreover, the GI50 with IGROV-1, in the experiment with M14, in the experiment on MDA-MB-435, with MDA-N, with MOLT-4 and with OVCAR-5 was > 100 µM (inactive) in each case. Also, the GI50 in the experiment with RXF 393, in the experiment on SF-295, with SK-MEL-28, in the experiment with SK-MEL-5, in the experiment with SNB-75 and in the experiment with SR was > 100 µM (inactive) in each case. The GI50 in the experiment with UACC-62 was > 100 µM (inactive).
Regarding `NC(CCC(=O)OCc1ccccc1)C(=O)NC(CCC(=O)OCc1ccccc1)C(=O)O` (stereo not given) (H-Glu(OBn)-Glu(OBn)-OH; configuration not given here), the GI50 in the experiment on BT-549, with CCRF-CEM, with COLO 205, in the experiment with HCT-116, in the experiment on HL-60 and in the experiment on Hs-578T was > 100 µM (inactive) in each case. Also, the GI50 in the experiment on IGROV-1, in the experiment on M14, in the experiment on MDA-MB-435, in the experiment on MDA-N, in the experiment with MOLT-4 and in the experiment with OVCAR-5 was > 100 µM (inactive) in each case. The GI50 with RXF 393, in the experiment on SF-295, in the experiment on SK-MEL-28, in the experiment on SK-MEL-5, with SNB-75 and in the experiment on SR was > 100 µM (inactive) throughout. Further, the GI50 in the experiment on UACC-62 was > 100 µM (inactive).
For the molecule `O=C(Sc1c(-c2ccccc2)c(=O)n(-c2ccccc2)c(=S)n1-c1ccccc1)c1ccco1`, the GI50 with BT-549 is > 100 µM (inactive); in the experiment on CCRF-CEM it was 18.7 µM (inactive); in the experiment on COLO 205, > 100 µM (inactive); with HCT-116, > 100 µM (inactive); in the experiment on HL-60, 21.5 µM (inactive); in the experiment with Hs-578T, > 73.5 µM (inactive). Moreover, the GI50 in the experiment on IGROV-1 was > 100 µM (inactive); with M14, > 100 µM (inactive); with MDA-MB-435 it was > 100 µM (inactive); in the experiment with MDA-N it was > 90.6 µM (inactive); in the experiment on MOLT-4 it was 27.5 µM (inactive); in the experiment with OVCAR-5 it was > 100 µM (inactive). Besides, the GI50 with RXF 393 was > 100 µM (inactive); in the experiment with SF-295, > 100 µM (inactive); in the experiment with SK-MEL-28 it was > 100 µM (inactive); in the experiment on SK-MEL-5, 97.9 µM (inactive); in the experiment on SNB-75, 72.1 µM (inactive); in the experiment with SR it was 29.2 µM (inactive). Further, in the experiment with UACC-62, the GI50 is > 76.4 µM (inactive).
Regarding `O=C(CC(c1ccccc1)c1c(O)c2ccccc2oc1=O)c1ccccc1` (stereo not given), the GI50 with BT-549 was 49.5 µM (inactive); in the experiment on CCRF-CEM, 59.7 µM (inactive); in the experiment with COLO 205, 59.7 µM (inactive); with HCT-116 it was > 84.5 µM (inactive); in the experiment on HL-60, 90.2 µM (inactive); in the experiment with Hs-578T, > 69.5 µM (inactive). In addition, the GI50 in the experiment on IGROV-1 is > 100 µM (inactive); in the experiment on M14, > 100 µM (inactive); in the experiment with MDA-MB-435, 72.6 µM (inactive); in the experiment on MDA-N, > 84.5 µM (inactive); in the experiment with MOLT-4 it was 84.9 µM (inactive); in the experiment with OVCAR-5, > 100 µM (inactive). Also, the GI50 with RXF 393 was > 53.1 µM (inactive); in the experiment on SF-295, > 76.7 µM (inactive); in the experiment on SK-MEL-28, 72.1 µM (inactive); in the experiment with SK-MEL-5, > 100 µM (inactive); in the experiment on SNB-75, > 47.5 µM (inactive); in the experiment on SR it was 44.6 µM (inactive). The GI50 with UACC-62 was 38.4 µM (inactive).
In the case of `O=C1Nc2ccccc2SC1=C(C(=O)c1ccccc1)C(=O)c1ccccc1`, the GI50 with BT-549 was 30.5 µM (inactive); in the experiment with CCRF-CEM, 4.17 µM (inactive); with COLO 205, 29.2 µM (inactive); in the experiment on HCT-116 it was 29.5 µM (inactive); with HL-60, 0.091 µM (active); in the experiment with Hs-578T, 31.6 µM (inactive). The GI50 is 42.3 µM (inactive) in the experiment with IGROV-1; 28.3 µM (inactive) with M14; 21.8 µM (inactive) in the experiment on MDA-MB-435; 19.7 µM (inactive) in the experiment with MDA-N; 1.04 µM (active) in the experiment on MOLT-4; 27.8 µM (inactive) with OVCAR-5. Besides, the GI50 was 55 µM (inactive) with RXF 393; 17.1 µM (inactive) in the experiment on SF-295; 55.6 µM (inactive) in the experiment on SK-MEL-28; 32.9 µM (inactive) in the experiment on SK-MEL-5; 51.5 µM (inactive) with SNB-75; 17.7 µM (inactive) in the experiment with SR. In addition, the GI50 with UACC-62 is 20.7 µM (inactive).
Consider `COC(=O)C1(Cc2ccccc2)Cc2ccc3c(c2C1=O)CCC3` (stereo not given), for which the GI50 with BT-549 was 2.24 µM (inactive); in the experiment with CCRF-CEM, 26.9 µM (inactive); in the experiment with COLO 205 it was 27.8 µM (inactive); with HCT-116 it was 30.5 µM (inactive); with HL-60, 20.3 µM (inactive); in the experiment on Hs-578T it was 3.95 µM (inactive). Moreover, the GI50 was > 72.9 µM (inactive) with IGROV-1; 25.1 µM (inactive) with M14; 24.9 µM (inactive) in the experiment with MDA-MB-435; 26.2 µM (inactive) in the experiment with MDA-N; 20.6 µM (inactive) with MOLT-4; > 63 µM (inactive) with OVCAR-5. Further, the GI50 in the experiment with RXF 393 is 20.4 µM (inactive); in the experiment on SF-295, > 46.2 µM (inactive); in the experiment with SK-MEL-28, > 70.6 µM (inactive); with SK-MEL-5, 18.5 µM (inactive); with SNB-75 it was 22.6 µM (inactive); in the experiment on SR, 28.7 µM (inactive). Further, in the experiment on UACC-62, the GI50 is > 36.7 µM (inactive).
For `N#C/C(=C\c1ccc(O)cc1)C(N)=O`, the GI50 in the experiment on CCRF-CEM is > 100 µM (inactive); in the experiment on COLO 205 it was > 100 µM (inactive); in the experiment with HCT-116, > 100 µM (inactive); in the experiment on HL-60, > 100 µM (inactive) and 57.7 µM (inactive); in the experiment with IGROV-1, > 100 µM (inactive); in the experiment on M14 it was > 100 µM (inactive). Besides, the GI50 in the experiment on MOLT-4 is > 100 µM (inactive); with OVCAR-5 it was > 100 µM (inactive); in the experiment with RXF 393 it was 77.3 µM (inactive); in the experiment on SF-295, > 100 µM (inactive); in the experiment on SK-MEL-28, > 100 µM (inactive); with SK-MEL-5, > 100 µM (inactive). Also, the GI50 in the experiment with SNB-78 and in the experiment on UACC-62 was > 100 µM (inactive) in each case.
With `CC(=O)Nc1c(C)cc2c(nc3n2CCC3OC(C)=O)c1[N+](=O)[O-]` (stereo not given), the GI50 with BT-549, with CCRF-CEM, with COLO 205, in the experiment with HCT-116, in the experiment with HL-60 and in the experiment on Hs-578T was > 100 µM (inactive) each time. Also, the GI50 with IGROV-1, in the experiment on M14, in the experiment on MDA-MB-435, in the experiment with MDA-N, with MOLT-4 and in the experiment on OVCAR-5 was > 100 µM (inactive) throughout. Besides, the GI50 was 7.98 µM (inactive) in the experiment on RXF 393; > 100 µM (inactive) with SF-295; > 100 µM (inactive) with SK-MEL-28; > 100 µM (inactive) with SK-MEL-5; > 100 µM (inactive) in the experiment on SNB-75; > 100 µM (inactive) in the experiment with SR. Besides, the GI50 with UACC-62 is > 100 µM (inactive).
As to `O=[N+]([O-])C(=C(\Cl)NCCO)/C(Cl)=C(/Cl)Br`, the GI50 in the experiment with BT-549 was 1.77 µM (inactive); in the experiment on CCRF-CEM, 0.323 µM (active); with COLO 205, 1.38 µM (inactive); with HCT-116, 1.61 µM (inactive); in the experiment on HL-60, 0.791 µM (active); with Hs-578T it was 6 µM (inactive). In addition, the GI50 in the experiment with IGROV-1 was 2.77 µM (inactive); with M14 it was 1.57 µM (inactive); with MDA-MB-435, 1.3 µM (inactive); in the experiment on MDA-N, 1.83 µM (inactive); in the experiment with MOLT-4, 0.481 µM (active); with OVCAR-5, 4 µM (inactive). Also, the GI50 was 2.6 µM (inactive) in the experiment on RXF 393; 12.1 µM (inactive) in the experiment with SF-295; 2.1 µM (inactive) in the experiment with SK-MEL-28; 2.44 µM (inactive) in the experiment on SK-MEL-5; 3.37 µM (inactive) with SNB-75; 1.11 µM (active) in the experiment on SR. Besides, the GI50 in the experiment with UACC-62 is 1.75 µM (inactive).
